Each structure is given as a SMILES string. Bounds are passed on as bounds.

Common to all, as to assay type: cell-based
The target of one series is hERG channel (Homo sapiens (Human), UniProt Q12809). The experiment in a line: hERG channel inhibition assay. The note with it: patch-clamp; for IC50: CHO hERG cells; for IC20: human, CHO cells stably expressing hERG. The protocol: hERG Channel Inhibition Assay
The hERG K^+ channels were cloned in humans and stably expressed in a CHO (Chinese hamster ovary) cell line. CHOhERG cells were used for patch-clamp (voltage-clamp, whole-cell) experiments. Cells were stimulated by a voltage pattern to activate hERG channels and conduct IKhERG Currents (rapid delayed outward rectifier potassium current of the hERG channel). After the cells were stabilized for a few minutes, the amplitude and kinetics of IKhERG were recorded at a stimulation frequency of 0.1 Hz (6 bpm). Thereafter, the test compound was added to the preparation at increasing concentrations. For each concentration, an attempt was made to reach a steady-state effect, usually, this was achieved within 3-10 min at which time the next highest concentration was applied. The amplitude and kinetics of IKhERG are recorded in each concentration of the drug which were compared to the control values (taken as 100%). (references: Redfern WS, Carlsson L, Davis A S, Lynch W G, MacKenzie I, Palethorpe S, Siegl P K, Strang I, Sullivan A T, Wallis R, Camm A J, Hammond T G. 2003; Relationships between preclinical cardiac electrophysiology, clinical QT interval prolongation and torsade de pointes for a broad range of drugs: evidence for a provisional safety margin in drug development. Cardiovasc. Res. 58:32-45, Sanguinetti M C, Tristani-Firouzi M. 2006; hERG potassium channels and cardiac arrhythmia. Nature 440:463-469, Webster R, Leishman D, Walker D. 2002; Towards a drug concentration effect relationship for QT prolongation and torsades de pointes. Curr. Opin. Drug Discov. Devel. 5:116-26).

In the next series the target is human TLR9 (Homo sapiens (Human), UniProt Q9NR96). Description: HEK293-Blue-hTLR-9 cells assay. The note with it: HEK293-Blue-hTLR9 cells, ODN2006 stimulation, 20 hrs, SEAP reporter; read-out: HEK/hTLR9 IC50.
A further series has as its target human TLR8 (Homo sapiens (Human), UniProt Q9NR97). The experiment in a line: HEK293-Blue-hTLR-8 cells assay. The settings on record: HEK293-Blue-hTLR8 cells, R848 stimulation, 20 hrs, SEAP reporter; read-out: HEK/hTLR8 IC50.

human TLR9, sequence (Q9NR96 26-1032): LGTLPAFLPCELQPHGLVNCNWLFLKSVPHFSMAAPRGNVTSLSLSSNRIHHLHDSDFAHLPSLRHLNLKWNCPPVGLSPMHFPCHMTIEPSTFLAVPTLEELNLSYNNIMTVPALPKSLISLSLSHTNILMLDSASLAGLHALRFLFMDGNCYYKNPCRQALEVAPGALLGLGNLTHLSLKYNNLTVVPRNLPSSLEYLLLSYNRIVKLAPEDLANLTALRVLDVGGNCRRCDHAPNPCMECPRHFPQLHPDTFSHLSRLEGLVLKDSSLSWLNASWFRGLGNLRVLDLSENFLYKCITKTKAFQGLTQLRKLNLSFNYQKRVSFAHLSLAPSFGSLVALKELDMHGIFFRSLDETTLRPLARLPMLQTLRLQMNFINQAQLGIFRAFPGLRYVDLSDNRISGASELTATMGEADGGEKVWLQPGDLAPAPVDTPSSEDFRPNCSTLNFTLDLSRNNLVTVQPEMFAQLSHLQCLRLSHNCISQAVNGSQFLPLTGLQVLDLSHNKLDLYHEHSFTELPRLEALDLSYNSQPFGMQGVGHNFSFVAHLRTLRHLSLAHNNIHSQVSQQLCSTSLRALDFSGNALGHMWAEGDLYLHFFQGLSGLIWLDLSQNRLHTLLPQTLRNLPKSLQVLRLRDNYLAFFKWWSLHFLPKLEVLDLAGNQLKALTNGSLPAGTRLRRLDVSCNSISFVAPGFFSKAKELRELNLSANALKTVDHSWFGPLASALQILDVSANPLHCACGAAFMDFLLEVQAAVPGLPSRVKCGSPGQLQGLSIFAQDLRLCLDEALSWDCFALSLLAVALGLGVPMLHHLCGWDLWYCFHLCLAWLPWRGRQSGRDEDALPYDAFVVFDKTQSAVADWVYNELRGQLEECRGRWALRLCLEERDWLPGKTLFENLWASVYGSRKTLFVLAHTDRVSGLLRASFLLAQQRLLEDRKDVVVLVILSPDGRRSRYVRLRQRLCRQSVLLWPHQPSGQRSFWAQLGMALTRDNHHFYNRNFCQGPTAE
hERG channel, sequence (Q12809 whole entry): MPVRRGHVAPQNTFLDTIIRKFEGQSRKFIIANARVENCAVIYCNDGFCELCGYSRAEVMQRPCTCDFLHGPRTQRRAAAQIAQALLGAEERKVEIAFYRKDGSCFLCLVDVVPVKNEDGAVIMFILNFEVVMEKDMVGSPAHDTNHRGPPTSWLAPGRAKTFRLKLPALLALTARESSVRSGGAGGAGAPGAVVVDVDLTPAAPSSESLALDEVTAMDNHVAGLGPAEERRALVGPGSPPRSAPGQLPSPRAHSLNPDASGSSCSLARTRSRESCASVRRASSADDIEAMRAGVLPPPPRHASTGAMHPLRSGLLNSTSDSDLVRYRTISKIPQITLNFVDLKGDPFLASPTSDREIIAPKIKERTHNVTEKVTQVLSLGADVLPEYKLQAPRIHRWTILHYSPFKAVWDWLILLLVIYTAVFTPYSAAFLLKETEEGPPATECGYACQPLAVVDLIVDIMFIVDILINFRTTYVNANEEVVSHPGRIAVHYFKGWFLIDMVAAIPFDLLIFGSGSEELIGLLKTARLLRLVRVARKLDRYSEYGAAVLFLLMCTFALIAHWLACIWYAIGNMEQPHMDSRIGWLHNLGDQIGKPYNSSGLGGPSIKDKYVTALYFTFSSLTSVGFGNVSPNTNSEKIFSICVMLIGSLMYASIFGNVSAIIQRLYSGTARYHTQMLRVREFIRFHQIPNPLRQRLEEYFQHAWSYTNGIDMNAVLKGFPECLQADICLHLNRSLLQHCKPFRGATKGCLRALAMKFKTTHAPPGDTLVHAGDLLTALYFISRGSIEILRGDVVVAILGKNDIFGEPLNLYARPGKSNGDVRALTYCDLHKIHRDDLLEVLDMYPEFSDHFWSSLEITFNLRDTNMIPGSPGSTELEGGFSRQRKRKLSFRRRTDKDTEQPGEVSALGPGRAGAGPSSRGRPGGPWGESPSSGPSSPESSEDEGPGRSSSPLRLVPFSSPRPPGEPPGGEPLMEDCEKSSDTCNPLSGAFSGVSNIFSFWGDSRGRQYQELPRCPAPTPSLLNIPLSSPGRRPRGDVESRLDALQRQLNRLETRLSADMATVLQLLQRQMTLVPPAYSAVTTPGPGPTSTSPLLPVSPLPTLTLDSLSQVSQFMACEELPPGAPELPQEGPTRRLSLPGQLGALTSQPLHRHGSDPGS
human TLR8, sequence (Q9NR97 27-1041): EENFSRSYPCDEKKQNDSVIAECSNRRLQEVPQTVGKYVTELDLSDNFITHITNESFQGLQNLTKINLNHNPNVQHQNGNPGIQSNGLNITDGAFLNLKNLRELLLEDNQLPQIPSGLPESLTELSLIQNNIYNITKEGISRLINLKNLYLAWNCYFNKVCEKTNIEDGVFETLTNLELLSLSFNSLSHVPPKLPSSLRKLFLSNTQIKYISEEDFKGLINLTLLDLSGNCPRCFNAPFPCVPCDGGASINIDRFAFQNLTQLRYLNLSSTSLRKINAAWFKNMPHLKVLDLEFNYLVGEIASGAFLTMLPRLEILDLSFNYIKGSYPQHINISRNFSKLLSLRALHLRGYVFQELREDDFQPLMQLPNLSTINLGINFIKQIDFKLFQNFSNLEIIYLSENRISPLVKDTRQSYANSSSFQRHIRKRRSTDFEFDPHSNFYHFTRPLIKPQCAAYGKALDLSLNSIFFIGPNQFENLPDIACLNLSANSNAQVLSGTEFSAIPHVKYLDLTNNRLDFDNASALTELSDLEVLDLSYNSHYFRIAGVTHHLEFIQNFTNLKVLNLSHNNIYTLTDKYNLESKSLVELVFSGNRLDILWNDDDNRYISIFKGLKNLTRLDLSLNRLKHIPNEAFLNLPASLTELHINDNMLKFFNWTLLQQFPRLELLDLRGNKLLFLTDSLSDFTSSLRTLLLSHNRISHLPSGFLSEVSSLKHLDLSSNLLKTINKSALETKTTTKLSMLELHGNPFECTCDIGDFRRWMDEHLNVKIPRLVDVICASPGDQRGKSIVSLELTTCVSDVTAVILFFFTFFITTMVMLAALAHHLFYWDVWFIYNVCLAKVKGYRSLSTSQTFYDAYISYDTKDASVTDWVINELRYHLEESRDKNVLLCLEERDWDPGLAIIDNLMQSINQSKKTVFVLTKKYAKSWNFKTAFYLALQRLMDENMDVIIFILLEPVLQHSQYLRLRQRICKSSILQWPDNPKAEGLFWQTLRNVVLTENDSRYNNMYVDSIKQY

With `C[C@@H]1CN(c2ccc(C#N)c3ncccc23)C[C@@H]2C[C@@H](Nc3ccc4c(n3)CCNC4)CN21` [Example 1, 5-[(4R,7R,8aS)-4-methyl-7-(5,6,7,8-tetrahydro-1,6-naphthyridin-2-ylamino)-3,4,6,7,8,8a-hexahydro-1H-pyrrolo[1,2-a]pyrazin-2-yl]quinoline-8-carbonitrile], the figures for the IC50 on hERG channel, at human TLR9 and on human TLR8 were more than 20 µM, 43.4 nM and 13.4 nM, respectively. Moreover, at hERG channel, the 20% effect concentration (IC20) (usually the concentration at which the effect reaches the 20% level) is more than 10 µM.
As to `C[C@@H]1CN(c2ccc(C#N)c3ncccc23)C[C@@H]2C[C@@H](Nc3cc4c(cn3)CCNC4)CN21` [Example 2, 5-[(4R,7R,8aS)-4-methyl-7-(5,6,7,8-tetrahydro-2,6-naphthyridin-3-ylamino)-3,4,6,7,8,8a-hexahydro-1H-pyrrolo[1,2-a]pyrazin-2-yl]quinoline-8-carbonitrile], the IC50 against hERG channel is more than 20 µM; at human TLR9, 89.5 nM; on human TLR8, 12.5 nM. On hERG channel, the IC20 is more than 10 µM.
For `C[C@@H]1CN(c2ccc(C#N)c3ncccc23)C[C@@H]2C[C@@H](Nc3ccc4c(n3)CNCC4)CN21` [Example 3, 5-[(4R,7R,8aS)-4-methyl-7-(5,6,7,8-tetrahydro-1,7-naphthyridin-2-ylamino)-3,4,6,7,8,8a-hexahydro-1H-pyrrolo[1,2-a]pyrazin-2-yl]quinoline-8-carbonitrile] the same measures were more than 20 µM, 114 nM, 18.4 nM and more than 10 µM.
As to `[2H]c1ccc2c(N3C[C@@H]4C[C@H](N5CCNCC5)CN4[C@H](C)C3)ccc(C#N)c2n1` [Example 15, 5-[(4R,7S,8aS)-4-methyl-7-piperazin-1-yl-3,4,6,7,8,8a-hexahydro-1H-pyrrolo[1,2-a]pyrazin-2-yl]-2-deuterio-quinoline-8-carbonitrile], the IC50 against hERG channel is more than 20 µM; on human TLR9, 120 nM; on human TLR8, 20.3 nM. The same compound gave an IC20 against hERG channel of more than 10 µM.
For `[2H]c1ccc2c(N3C[C@@H]4C[C@H](N5CCC(N(C)C)CC5)CN4[C@H](C)C3)ccc(C#N)c2n1` [Example 20, 5-[(4R,7S,8aS)-7-[4-(dimethylamino)-1-piperidyl]-4-methyl-3,4,6,7,8,8a-hexahydro-1H-pyrrolo[1,2-a]pyrazin-2-yl]-2-deuterio-quinoline-8-carbonitrile], in that order: more than 20 µM, 150 nM, 18.3 nM and more than 10 µM.

Source of the values: US12486273B2 (Hoffmann-La Roche Inc., priority 2019, dated 2025).
